Target: human activated kallikrein enzyme (Homo sapiens (Human), UniProt P03952)
Experiment: Plasma kallikrein inhibition assay with fluorogenic peptide substrate, 500 pM activated kallikrein format
Format: biochemical
Conditions: 500 pM activated kallikrein; 300 uM Pro-Phe-Arg-7-amido-4-methylcoumarin substrate; 30 min preincubation, 10 min reaction at RT; read-out: Primary Dose Response Assay: Average EC50
How it was run: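 Human activated kallikrein (500 pM format) was preincubated 30 min at RT with inhibitor in 20 mM Tris pH 7.5, 150 mM NaCl, 1 mM EDTA, 0.1% PEG-400, 0.1% Triton X-100. Reactions then ran 10 min at RT with 300 uM Pro-Phe-Arg-AMC. Fluorescence was read at ex 380/em 460 nm.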

human activated kallikrein enzyme, sequence (P03952 391-638): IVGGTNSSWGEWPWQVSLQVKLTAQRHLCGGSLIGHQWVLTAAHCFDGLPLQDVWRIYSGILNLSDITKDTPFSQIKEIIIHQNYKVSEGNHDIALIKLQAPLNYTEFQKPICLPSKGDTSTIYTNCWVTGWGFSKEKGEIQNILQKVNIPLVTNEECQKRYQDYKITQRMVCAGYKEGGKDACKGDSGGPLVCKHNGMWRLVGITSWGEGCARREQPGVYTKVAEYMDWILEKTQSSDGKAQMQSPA
human activated kallikrein enzyme, sequence (P03952 20-390 partner): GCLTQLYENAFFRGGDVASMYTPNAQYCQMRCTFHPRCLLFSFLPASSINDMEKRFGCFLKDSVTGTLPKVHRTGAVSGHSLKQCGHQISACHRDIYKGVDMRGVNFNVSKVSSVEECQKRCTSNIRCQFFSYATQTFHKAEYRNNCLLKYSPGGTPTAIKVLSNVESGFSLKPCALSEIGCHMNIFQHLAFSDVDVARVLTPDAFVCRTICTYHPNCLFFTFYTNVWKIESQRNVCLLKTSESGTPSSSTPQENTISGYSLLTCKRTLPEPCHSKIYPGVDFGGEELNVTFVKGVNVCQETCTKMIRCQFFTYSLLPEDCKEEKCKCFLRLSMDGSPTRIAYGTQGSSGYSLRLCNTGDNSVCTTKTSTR

Compound | EC50 [nM]
O=C(NCc1cc(Cl)ccc1-c1nn[nH]n1)c1cnn(Cc2cn3cc(C4CC4)ccc3n2)c1 [Example I-117, N-(5-chloro-2-(2H-tetrazol-5-yl)benzyl)-1-((6-cyclopropylimidazo[1,2-a]pyridin-2-yl)methyl)-1H-pyrazole-4-carboxamide] | > 7100
COc1ccc(C#N)c(CNC(=O)c2cnn(Cc3cn4cc(C5CC5)cc(C#N)c4n3)c2)c1F [Example I-118, N-(6-cyano-2-fluoro-3-methoxybenzyl)-1-((8-cyano-6-cyclopropylimidazo[1,2-a]pyridin-2-yl)methyl)-1H-pyrazole-4-carboxamide] | ≤ 1
COc1ccc(C#N)c(CNC(=O)c2cnn(Cc3cn4cc(C5CC5)ccc4n3)c2)c1F [Example I-119, N-(6-cyano-2-fluoro-3-methoxybenzyl)-1-((6-cyclopropylimidazo[1,2-a]pyridin-2-yl)methyl)-1H-pyrazole-4-carboxamide] | 1 to 10
O=C(NCc1cc(=O)[nH]c2ccccc12)c1cnn(Cc2cn3cc(C4CC4)ccc3n2)c1 [Example I-120, 1-((6-cyclopropylimidazo[1,2-a]pyridin-2-yl)methyl)-N-((2-oxo-1,2-dihydroquinolin-4-yl)methyl)-1H-pyrazole-4-carboxamide] | 10 to 100
O=C(NCc1cccc(Cl)c1)c1cnn(Cc2cn3cc(C4CC4)ccc3n2)c1 [Example I-121, N-(3-chlorobenzyl)-1-((6-cyclopropylimidazo[1,2-a]pyridin-2-yl)methyl)-1H-pyrazole-4-carboxamide] | 100 to 2000
O=C(NCc1cc(=O)[nH]c2ccc(Br)cc12)c1cnn(Cc2cn3cc(C4CC4)ccc3n2)c1 [Example I-122, N-((6-bromo-2-oxo-1,2-dihydroquinolin-4-yl)methyl)-1-((6-cyclopropylimidazo[1,2-a]pyridin-2-yl)methyl)-1H-pyrazole-4-carboxamide] | 1 to 10
Cc1cc2[nH]cc(Cl)c2c(C)c1CNC(=O)c1cnn(Cc2cn3cc(C4CC4)ccc3n2)c1 [Example I-123, N-((3-chloro-4,6-dimethyl-1H-indol-5-yl)methyl)-1-((6-cyclopropylimidazo[1,2-a]pyridin-2-yl)methyl)-1H-pyrazole-4-carboxamide] | 10 to 100
Cc1cc2[nH]ccc2c(C)c1CNC(=O)c1cnn(Cc2cn3cc(C4CC4)ccc3n2)c1 [Example I-124, 1-((6-cyclopropylimidazo[1,2-a]pyridin-2-yl)methyl)-N-((4,6-dimethyl-1H-indol-5-yl)methyl)-1H-pyrazole-4-carboxamide] | 10 to 100
O=C(NCc1cc(Cl)ccc1-n1cnnn1)c1cnn(Cc2cn3cc(C4CC4)ccc3n2)c1 [Example I-125, N-(5-chloro-2-(1H-tetrazol-1-yl)benzyl)-1-((6-cyclopropylimidazo[1,2-a]pyridin-2-yl)methyl)-1H-pyrazole-4-carboxamide] | 1 to 10
O=C(NCc1csc2ccc(Cl)cc12)c1cnn(Cc2cn3cc(C4CC4)ccc3n2)c1 [Example I-128, N-((5-chlorobenzo[b]thiophen-3-yl)methyl)-1-((6-cyclopropylimidazo[1,2-a]pyridin-2-yl)methyl)-1H-pyrazole-4-carboxamide] | 100 to 2000
O=C(NCCOc1cccc(Cl)c1)c1cnn(Cc2cn3cc(C4CC4)ccc3n2)c1 [Example I-129, N-(2-(3-chlorophenoxy)ethyl)-1-((6-cyclopropylimidazo[1,2-a]pyridin-2-yl)methyl)-1H-pyrazole-4-carboxamide] | 100 to 2000
O=C(NCc1cccc2ccc(Cl)cc12)c1cnn(Cc2cn3cc(C4CC4)ccc3n2)c1 [Example I-130, N-((7-chloronaphthalen-1-yl)methyl)-1-((6-cyclopropylimidazo[1,2-a]pyridin-2-yl)methyl)-1H-pyrazole-4-carboxamide] | 2000 to 7100
O=C(NCc1nccc2ccc(Cl)cc12)c1cnn(Cc2cn3cc(C4CC4)ccc3n2)c1 [Example I-131, N-((7-chloroisoquinolin-1-yl)methyl)-1-((6-cyclopropylimidazo[1,2-a]pyridin-2-yl)methyl)-1H-pyrazole-4-carboxamide] | 100 to 2000
O=C(NCCc1cccc(Br)c1)c1cnn(Cc2cn3cc(C4CC4)ccc3n2)c1 [Example I-132, N-(3-bromophenethyl)-1-((6-cyclopropylimidazo[1,2-a]pyridin-2-yl)methyl)-1H-pyrazole-4-carboxamide] | 100 to 2000
O=C(NCc1cccc2ccc(Br)cc12)c1cnn(Cc2cn3cc(C4CC4)ccc3n2)c1 [Example I-133, N-((7-bromonaphthalen-1-yl)methyl)-1-((6-cyclopropylimidazo[1,2-a]pyridin-2-yl)methyl)-1H-pyrazole-4-carboxamide] | 2000 to 7100
Cc1cc2c(N)noc2c(C)c1CNC(=O)c1cnn(Cc2cn3cc(C4CC4)ccc3n2)c1 [Example I-134, N-((3-amino-5,7-dimethylbenzo[d]isoxazol-6-yl)methyl)-1-((6-cyclopropylimidazo[1,2-a]pyridin-2-yl)methyl)-1H-pyrazole-4-carboxamide] | 2000 to 7100
O=C(NC1CCc2c(Cl)ccn3cnc1c23)c1cn(Cc2cn3cc(C4CC4)ccc3n2)nn1 (stereo not drawn) [Example I-135, N-(6-chloro-8,9-dihydro-7H-imidazo[4,5,1-ij]quinolin-9-yl)-1-((6-cyclopropylimidazo[1,2-a]pyridin-2-yl)methyl)-1H-1,2,3-triazole-4-carboxamide] | 10 to 100
O=C(NCc1ccc2nccn2c1)c1cn(Cc2cn3cc(C4CC4)ccc3n2)nn1 [Example I-136, 1-((6-cyclopropylimidazo[1,2-a]pyridin-2-yl)methyl)-N-(imidazo[1,2-a]pyridin-6-ylmethyl)-1H-1,2,3-triazole-4-carboxamide] | 100 to 2000
O=C(NCc1ncc2c(F)cc(Cl)cn12)c1cnn(Cc2cn3cc(C4CC4)ccc3n2)c1 [Example I-137, N-((6-chloro-8-fluoroimidazo[1,5-a]pyridin-3-yl)methyl)-1-((6-cyclopropylimidazo[1,2-a]pyridin-2-yl)methyl)-1H-pyrazole-4-carboxamide] | 100 to 2000
COc1ccnc(CNC(=O)c2cn(Cc3cn4cc(C5CC5)cc(CCN(C)C)c4n3)nn2)c1F [Example I-138, 1-((6-cyclopropyl-8-(2-(dimethylamino)ethyl)imidazo[1,2-a]pyridin-2-yl)methyl)-N-((3-fluoro-4-methoxypyridin-2-yl)methyl)-1H-1,2,3-triazole-4-carboxamide] | 1 to 10
COc1ccnc(CNC(=O)c2cn(Cc3cn4cc(C5CC5)cc(N5CCN(C)CC5)c4n3)nn2)c1F [Example I-139, 1-((6-cyclopropyl-8-(4-methylpiperazin-1-yl)imidazo[1,2-a]pyridin-2-yl)methyl)-N-((3-fluoro-4-methoxypyridin-2-yl)methyl)-1H-1,2,3-triazole-4-carboxamide] | ≤ 1
O=C(NCc1cc2occc2cn1)c1cn(Cc2cn3cc(C4CC4)ccc3n2)nn1 [Example I-140, 1-((6-cyclopropylimidazo[1,2-a]pyridin-2-yl)methyl)-N-(furo[3,2-c]pyridin-6-ylmethyl)-1H-1,2,3-triazole-4-carboxamide] | 100 to 2000
O=C(NCc1cc2c(cn1)CCO2)c1cn(Cc2cn3cc(C4CC4)ccc3n2)nn1 [Example I-141, 1-((6-cyclopropylimidazo[1,2-a]pyridin-2-yl)methyl)-N-((2,3-dihydrofuro[3,2-c]pyridin-6-yl)methyl)-1H-1,2,3-triazole-4-carboxamide] | 10 to 100
O=C(NCc1cc(Cl)ccn1)c1cn(Cc2cn3cc(C4CC4)ccc3n2)nn1 [Example I-142, N-((4-chloropyridin-2-yl)methyl)-1-((6-cyclopropylimidazo[1,2-a]pyridin-2-yl)methyl)-1H-1,2,3-triazole-4-carboxamide] | 2000 to 7100
O=C(NCc1cc2cc[nH]c2cn1)c1cn(Cc2cn3cc(C4CC4)ccc3n2)nn1 [Example I-144, N-((1H-pyrrolo[2,3-c]pyridin-5-yl)methyl)-1-((6-cyclopropylimidazo[1,2-a]pyridin-2-yl)methyl)-1H-1,2,3-triazole-4-carboxamide] | 1 to 10
O=C(NCc1nccc(Cl)n1)c1cn(Cc2cn3cc(C4CC4)ccc3n2)nn1 [Example I-145, N-((4-chloropyrimidin-2-yl)methyl)-1-((6-cyclopropylimidazo[1,2-a]pyridin-2-yl)methyl)-1H-1,2,3-triazole-4-carboxamide] | 100 to 2000
O=C(NCc1cc2c(Cl)c[nH]c2cn1)c1cn(Cc2cn3cc(C4CC4)ccc3n2)nn1 [Example I-146, N-((3-chloro-1H-pyrrolo[2,3-c]pyridin-5-yl)methyl)-1-((6-cyclopropylimidazo[1,2-a]pyridin-2-yl)methyl)-1H-1,2,3-triazole-4-carboxamide] | 1 to 10
NCc1cc2c(cn1)N(C(=O)c1cn(Cc3cn4cc(C5CC5)ccc4n3)nn1)CC2 [Example I-147, (5-(aminomethyl)-2,3-dihydro-1H-pyrrolo[2,3-c]pyridin-1-yl)(1-((6-cyclopropylimidazo[1,2-a]pyridin-2-yl)methyl)-1H-1,2,3-triazol-4-yl)methanone] | 100 to 2000
O=C(NCc1cc2c(cn1)NCC2)c1cn(Cc2cn3cc(C4CC4)ccc3n2)nn1 [Example I-148, 1-((6-cyclopropylimidazo[1,2-a]pyridin-2-yl)methyl)-N-((2,3-dihydro-1H-pyrrolo[2,3-c]pyridin-5-yl)methyl)-1H-1,2,3-triazole-4-carboxamide] | 100 to 2000
O=C(NCc1cc2c(cn1)NCCO2)c1cn(Cc2cn3cc(C4CC4)ccc3n2)nn1 [Example I-149, 1-((6-cyclopropylimidazo[1,2-a]pyridin-2-yl)methyl)-N-((3,4-dihydro-2H-pyrido[4,3-b][1,4]oxazin-7-yl)methyl)-1H-1,2,3-triazole-4-carboxamide] | 10 to 100

From patent US11787796B2, “Plasma Kallikrein inhibitors and uses thereof” (Takeda Pharmaceutical Company Limited, priority 2019, dated 2023)
